Results reported in patent US7514452B2, “2-furancarboxylic acid hydrazides and pharmaceutical compositions containing the same” (Dainippon Pharmaceutical Co., Ltd, priority 2002, dated 2009).

Experiments:
[1] = target: glucagon receptor (Mus musculus, UniProt Q61606); assay: Experiment for glucagon binding inhibition, mouse hepatic membrane (125I-glucagon); conditions: male ddY mouse hepatic membrane, 125I-glucagon 50 pM, 25° C. for 30 minutes; read-out: Glucagon binding inhibitory activity IC50 (nM) Mouse
glucagon receptor (Mus musculus, UniProt Q61606), sequence (Q61606 27-485): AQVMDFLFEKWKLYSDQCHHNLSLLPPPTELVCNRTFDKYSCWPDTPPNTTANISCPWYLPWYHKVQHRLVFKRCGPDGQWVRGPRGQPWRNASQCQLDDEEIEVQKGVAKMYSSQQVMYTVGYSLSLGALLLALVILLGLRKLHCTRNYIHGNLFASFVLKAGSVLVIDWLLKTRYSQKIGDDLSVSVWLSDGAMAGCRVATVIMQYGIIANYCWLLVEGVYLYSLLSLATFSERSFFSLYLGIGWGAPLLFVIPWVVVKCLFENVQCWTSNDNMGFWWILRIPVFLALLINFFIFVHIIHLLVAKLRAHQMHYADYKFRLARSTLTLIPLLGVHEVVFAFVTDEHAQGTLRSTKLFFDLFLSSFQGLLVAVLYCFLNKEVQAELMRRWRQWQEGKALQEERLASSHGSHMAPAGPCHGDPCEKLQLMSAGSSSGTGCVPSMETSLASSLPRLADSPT
Protocol: (§1) The preparation of membrane from mouse and rat livers was carried out according to the method described in Bioorg. Med. Chem. Lett. 1992, 12, 915-918 in this experiment and ^125I-glucagon binding activity was measured with these membranes as glucagon receptor's samples. Livers were removed from male SD rats (about 250 g body weight per rat) and male ddY mice (about 30 g body weight per mouse). […] The homogenate was centrifuged for 15 minutes at 30,000×g. […] The precipitaion thus obtained was used as a hepatic membrane sample. […] The mixture was incubated at 25° C. for 30 minutes. […] The filter was washed 3 times with 50 mM Tris-HCl buffer (pH 7.2), and the radioactivity of the filter was measured by a γ counter (ARC-360, Aloka Co., Ltd.). […] Each experiment was carried out in duplicate. […] The concentration at 50% inhibition of binding (IC50) was calculated using a pseudo Hill plot.

[2] = target: glucagon receptor (Rattus norvegicus, UniProt P30082); assay: Experiment for glucagon binding inhibition, rat hepatic membrane (125I-glucagon); conditions: male SD rat hepatic membrane, 125I-glucagon 50 pM, 25° C. for 30 minutes; read-out: Glucagon binding inhibitory activity IC50 (nM) Rat
glucagon receptor (Rattus norvegicus, UniProt P30082), sequence (P30082 27-485): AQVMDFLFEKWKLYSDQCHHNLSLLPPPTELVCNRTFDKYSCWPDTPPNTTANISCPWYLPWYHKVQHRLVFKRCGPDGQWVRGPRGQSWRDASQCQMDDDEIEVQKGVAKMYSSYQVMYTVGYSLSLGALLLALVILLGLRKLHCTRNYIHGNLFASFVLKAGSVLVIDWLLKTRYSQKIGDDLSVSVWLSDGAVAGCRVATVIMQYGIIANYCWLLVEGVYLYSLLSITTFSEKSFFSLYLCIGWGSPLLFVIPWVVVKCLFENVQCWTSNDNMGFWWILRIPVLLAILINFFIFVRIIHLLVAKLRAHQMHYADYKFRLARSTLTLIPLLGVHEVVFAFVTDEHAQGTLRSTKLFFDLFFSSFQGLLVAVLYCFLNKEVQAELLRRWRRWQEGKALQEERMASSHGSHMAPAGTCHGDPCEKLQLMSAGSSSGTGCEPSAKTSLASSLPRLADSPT
Protocol: as §1

Row | melting point [°C] | IC50 [1] [nM] | IC50 [2] [nM] | Compound
1 | 220 to 225 |  |  | COc1ccc(C(=O)NNC(=O)c2occ(-c3ccccc3)c2-c2ccccc2)cc1C#N
2 | 150 to 158 |  |  | COc1ccc(C(=O)NNC(=O)c2occ(-c3ccccc3)c2-c2ccccc2)cc1[N+](=O)[O-]
3 | 132 to 135 |  |  | O=C(NNC(=O)c1occ(-c2ccccc2)c1-c1ccccc1)c1cccs1
4 | 115 to 120 |  |  | O=C(NNC(=O)c1occ(-c2ccccc2)c1-c1ccccc1)c1ccncc1
5 | 190 to 192 |  |  | O=C(NNC(=O)c1occ(-c2ccccc2)c1-c1ccccc1)c1ccccn1
6 | 203 to 207 |  |  | COc1ccc(C(=O)NNC(=O)c2occ(-c3ccccc3)c2-c2ccccc2)cc1Cl
7 | 197 to 199 |  |  | O=C(NNC(=O)c1occ(-c2ccccc2)c1-c1ccccc1)c1ccc(O)c(Cl)c1
8 | 175 to 177 |  |  | C=Cc1coc(C(=O)NNC(=O)c2ccc(O)c(C#N)c2)c1-c1ccccc1
9 | 190 to 192 |  |  | CCc1c(-c2ccccc2)coc1C(=O)NNC(=O)c1ccc(O)c(C#N)c1
10 | 186 to 188 |  |  | CCc1coc(C(=O)NNC(=O)c2ccc(O)c(C#N)c2)c1-c1ccccc1
11 | 181 to 184 |  |  | COc1ccc(C(=O)NNC(=O)c2occ(-c3ccccc3)c2-c2ccccc2)cc1OC
12 | 240 to 242 |  |  | COc1ccc(C(=O)NNC(=O)c2occ(-c3ccccc3)c2-c2ccccc2)c(OC)c1
13 | 229 to 230 |  |  | COc1c(Cl)cc(C(=O)NNC(=O)c2occ(-c3ccccc3)c2-c2ccccc2)cc1Cl
14 | 242 to 244 |  |  | O=C(NNC(=O)c1occ(-c2ccccc2)c1-c1ccccc1)c1ccc(O)c(O)c1
15 | 285 to 288 |  |  | O=C(NNC(=O)c1occ(-c2ccccc2)c1-c1ccccc1)c1ccc(O)cc1O
16 | 261 to 263 |  |  | O=C(NNC(=O)c1occ(-c2ccccc2)c1-c1ccccc1)c1cc(Cl)c(O)c(Cl)c1
17 | 217 to 218 |  |  | O=C(NNC(=O)c1occ(-c2ccccc2)c1-c1ccccc1)c1ccc(O)c(-c2ccccc2)c1

Second part, the compound before the results:

Row | Compound | melting point [°C] | IC50 [1] [nM] | IC50 [2] [nM]
18 | CC(=O)N(Cc1ccccc1)c1cccc(-c2ccoc2C(=O)NNC(=O)c2ccc(O)c(C#N)c2)c1 | 221 to 222 |  | 
19 | N#Cc1cc(C(=O)NNC(=O)c2occc2-c2cccc(NC(=O)OCc3ccccc3)c2)ccc1O | 179 to 181 |  | 
20 | O=C(NNC(=O)c1occc1-c1ccncc1)c1ccc(O)c([N+](=O)[O-])c1 | 237 |  | 
21 | Cc1cc(C)c(C)c(COc2cccc(-c3coc(C(=O)NNC(=O)c4ccc(O)c([N+](=O)[O-])c4)c3-c3cccc(OCc4c(C)c(C)cc(C)c4C)c3)c2)c1C | 174 to 175 |  | 
22 | Cc1ccccc1COc1cccc(-c2ccoc2C(=O)NNC(=O)c2ccc(O)c(C#N)c2)c1 | 178 to 180 |  | 
23 | CS(=O)(=O)Oc1cccc(-c2ccoc2C(=O)NNC(=O)c2ccc(O)c([N+](=O)[O-])c2)c1 | 170 to 171 |  | 
24 | CC(C)(C)OC(=O)c1cc(C(=O)NNC(=O)c2occc2-c2ccccc2)ccc1O | 147 to 154 |  | 
25 | O=C(NNC(=O)c1occc1-c1ccccc1)c1ccc(O)c(C(=O)O)c1 | 250 to 251 |  | 
26 | Cc1ccc(-c2ccoc2C(=O)NNC(=O)c2ccc(O)c(Cl)c2)cc1 | 240 to 242 |  | 
27 | N#Cc1cc(C(=O)NNC(=O)c2occ(-c3ccc(F)cc3)c2-c2ccc(F)cc2)ccc1O [Example 45, 3,4-Bis(4-fluorophenyl)-2-furancarboxylic acid 2-(3-cyano-4-hydroxybenzoyl)hydrazide] | 243 to 245 | 120 | 220
28 | CCCCOc1cccc(-c2ccoc2C(=O)NNC(=O)c2ccc(O)c(C#N)c2)c1 [Example 107, 3-(3-Butoxyphenyl)-2-furancarboxylic acid 2-(3-cyano-4-hydroxybenzoyl)hydrazide] | 186 to 188 | 360 | 140
29 | Cc1cc(C)c(C)c(COc2ccc(-c3ccoc3C(=O)NNC(=O)c3ccc(O)c([N+](=O)[O-])c3)cc2)c1C [Example 113, 3-[4-(2,3,5,6-Tetramethylbenzyloxy)phenyl]-2-furancarboxylic acid 2-(4-hydroxy-3-nitrobenzoyl)hydrazide] | 203 to 204 | 43 | 28
30 | Cc1ccccc1COc1cccc(-c2ccoc2C(=O)NNC(=O)c2ccc(O)c([N+](=O)[O-])c2)c1 [Example 119, 3-[3-(2-methylbenzyloxy)phenyl]-2-furancarboxylic acid 2-(4-hydroxy-3-nitrobenzoyl)hydrazide] | 114 to 115 | 9.6 | 16
31 | CS(=O)(=O)c1ccc(COc2cccc(-c3ccoc3C(=O)NNC(=O)c3ccc(O)c([N+](=O)[O-])c3)c2)cc1 [Example 120, 3-[3-(4-Methylsulfonylbenzyloxy)phenyl]-2-furancarboxylic acid 2-(4-hydroxy-3-nitrobenzoyl)hydrazide] | 114 to 117 | 27 | 37
32 | Cc1cccc(COc2cccc(-c3ccoc3C(=O)NNC(=O)c3ccc(O)c([N+](=O)[O-])c3)c2)c1 [Example 123, 3-[3-(3-Methylbenzyloxy)phenyl]-2-furancarboxylic acid 2-(4-hydroxy-3-nitrobenzoyl)hydrazide] | 144 to 145 | 65 | 33
33 | Cc1ccc(COc2cccc(-c3ccoc3C(=O)NNC(=O)c3ccc(O)c([N+](=O)[O-])c3)c2)cc1 [Example 126, 3-[3-(4-Methylbenzyloxy)phenyl]-2-furancarboxylic acid 2-(4-hydroxy-3-nitrobenzoyl)hydrazide] | 159 to 161 | 15 | 14
34 | Cc1ccc(C)c(COc2cccc(-c3ccoc3C(=O)NNC(=O)c3ccc(O)c([N+](=O)[O-])c3)c2)c1 [Example 127, 3-[3-(2,5-Dimethylbenzyloxy)phenyl]-2-furancarboxylic acid 2-(4-hydroxy-3-nitrobenzoyl)hydrazide] | 131 to 132 | 7.8 | 8.6
35 | Cc1ccc(COc2cccc(-c3ccoc3C(=O)NNC(=O)c3ccc(O)c([N+](=O)[O-])c3)c2)c(C)c1 [Example 128, 3-[3-(2,4-Dimethylbenzyloxy)phenyl]-2-furancarboxylic acid 2-(4-hydroxy-3-nitrobenzoyl)hydrazide] | 172 to 173 | 2.8 | 3.4
36 | Cc1ccc(COc2cccc(-c3ccoc3C(=O)NNC(=O)c3ccc(O)c([N+](=O)[O-])c3)c2)cc1C [Example 129, 3-[3-(3,4-Dimethylbenzyloxy)phenyl]-2-furancarboxylic acid 2-(4-hydroxy-3-nitrobenzoyl)hydrazide] | 157 to 162 | 6.1 | 5.2
37 | CS(=O)(=O)c1ccc(COc2cccc(-c3ccoc3C(=O)NNC(=O)c3ccc(O)c(C#N)c3)c2)cc1 [Example 136, 3-[3-(4-methylsulfonylbenzyloxy)phenyl]-2-furancarboxylic acid 2-(3-cyano-4-hydroxybenzoyl)hydrazide] | 235 to 237 | 48 | 96
38 | CS(=O)(=O)Nc1ccccc1COc1cccc(-c2ccoc2C(=O)NNC(=O)c2ccc(O)c([N+](=O)[O-])c2)c1 [Example 138, 3-[3-(2-Methylsulfonylaminobenzyloxy)phenyl]-2-furancarboxylic acid 2-(4-hydroxy-3-nitrobenzoyl)hydrazide] |  | 23 | 15
39 | CCCCc1ccc(-c2ccoc2C(=O)NNC(=O)c2ccc(O)c([N+](=O)[O-])c2)cc1 [Example 142, 3-(4-butylphenyl)-2-furancarboxylic acid 2-(4-hydroxy-3-nitrobenzoyl)hydrazide] | 190 to 193 | 9.3 | 5.5
40 | O=C(NNC(=O)c1occc1-c1ccccc1)c1ccc(O)c([N+](=O)[O-])c1 [Example 143, 3-Phenyl-2-furancarboxylic acid 2-(4-hydroxy-3-nitrobenzoyl)hydrazide] | 154 to 156 | 56 | 89
41 | Cc1cccc(-c2ccoc2C(=O)NNC(=O)c2ccc(O)c([N+](=O)[O-])c2)c1 [Example 145, 3-(3-Methylphenyl)-2-furancarboxylic acid 2-(4-hydroxy-3-nitrobenzoyl)hydrazide] | 126 to 128 | 190 | 100
42 | Cc1ccc(-c2ccoc2C(=O)NNC(=O)c2ccc(O)c([N+](=O)[O-])c2)cc1 [Example 146, 3-(4-Methylphenyl)-2-furancarboxylic acid 2-(4-hydroxy-3-nitrobenzoyl)hydrazide] | 180 to 182 | 38 | 27
43 | Cc1ccc(-c2ccoc2C(=O)NNC(=O)c2ccc(O)c([N+](=O)[O-])c2)cc1C [Example 150, 3-(3,4-Dimethylphenyl)-2-furancarboxylic acid 2-(4-hydroxy-3-nitrobenzoyl)hydrazide] | 127 to 129 | 73 | 90
44 | CC(=O)Nc1ccccc1COc1cccc(-c2ccoc2C(=O)NNC(=O)c2ccc(O)c([N+](=O)[O-])c2)c1 [Example 179, 3-[3-(2-Acetylaminobenzyloxy)phenyl]-2-furancarboxylic acid 2-(4-hydroxy-3-nitrobenzoyl)hydrazide] |  | 28 | 63
